Data as given in patent US9789116B2, “Compositions and methods of modulating short-chain dehydrogenase activity” (CASE WESTERN RESERVE UNIVERSITY, priority 2013, dated 2017).
Blank lines part the entries; values can stand above or below the compound they belong to.

Tests used:
[1] = system: 15-PGDH mRNA; test: 15-PGDH mRNA levels in colon cancer cell lines by real-time PCR; format: cell-based; settings: treated colon cancer cell lines, real-time PCR
Description: In these studies parental cell lines (not containing the 15-PGDH-luciferase reporter) are employed.

[2] = system: 15-PGDH-luciferase fusion reporter in V9m, LS174T and V503 cells; test: 15-PGDH-luciferase fusion gene reporter induction in colon cancer cell lines; format: cell-based; settings: for luciferase activity of 15-PGDH luciferase fusion cells: V9m, LS174T, V503, various concentrations
[3] = system: A549 cells; test: PGE2 levels in medium of IL1-beta stimulated A549 cells; format: cell-based; settings: for PGE2 induction compared with SW033291: 4 nM to 2500 nM
[4] = Hepatocyte stability; format: in vitro ADME; settings: hepatocytes in culture; read-out: Hepatocyte stability T½
Description: (§1) Time to inhibition refers to the time needed to inhibit the generation of NADH by 15-PGDH from the moment with drug is added into the reaction mix. Delta Tm refers to the shift in melting temperature of recombinant 15-PGDH in the presence of drug (with cofactor NADH also present). Concentration of Full Cell Line Reporter Induction refers to the concentration of drug that needs to be added to reporter cell line to achieve maximal induction of the 15-PGDH-luciferase gene fusion reporter cassette, as measured by luciferase assays. Hepatocyte stability refers to the half-life of compound in the presence of hepatocytes in culture. Toxicity refers to the concentration of compound needed to decrease cell numbers in a cell culture assay.

[5] = system: cell culture; test: Toxicity in a cell culture assay (decrease of cell numbers); format: cell-based; settings: concentration needed to decrease cell numbers in a cell culture assay
Description: as §1

[6] = system: A549 cells; test: Cellular toxicity on A549 cells by CellTiter-Glo; format: cell-based; settings: 24 hours, concentrations of up to 10 μM
Description: FIGS. 38(A-C) show assays of cellular toxicity on A549 cells at 24 hours of 15-PGDH inhibitors as assayed by CellTiter-Glo measurement.

[7] = molecular target: T1, recombinant 15-PGDH (Homo sapiens (Human), UniProt P15428); test: Melting temperature shift of recombinant 15-PGDH (SYPRO Orange); format: binding
[8] = molecular target: T1, recombinant 15-PGDH; test: Inhibition of enzymatic activity of recombinant 15-PGDH in vitro (NADH generation); format: biochemical
[9] = system: wild-type mouse bone marrow; test: Hematopoietic colonies from bone marrow treated ex vivo; format: cell-based; settings: 1 uM, ex vivo on ice 2 hours; compared with SW033291
Description: Treated marrow is again then plated into methylcellulose for counting of hematopoietic colonies.

[10] = Stability with liver extracts; format: in vitro ADME; settings: incubated with mouse, rat and human liver extracts
[11] = Chemical stability in aqueous solutions; format: physicochemical; settings: over broad pH range
[12] = system: mice; test: Immediate toxicity in mice; format: in vivo; settings: over 24 hours, IP 50 mg/kg body weight
[13] = system: lethally irradiated mice; test: Homing of CFSE dye labeled bone marrow cells in lethally irradiated mice; format: in vivo, mouse
Description: Drugs are administered following radiation, following the transplant, and again at 8 hours after the transplant.

[14] = Solubility in water; format: physicochemical; settings: pH=3
[15] = system: mouse tissues (colon, bone marrow, liver, lung); test: PGE2 in mouse tissues after IP injection; format: in vivo
Description: Shown is measurement by Elisa of PGE2 (ng PGE2/mg of tissue protein) from 4 mouse tissues: lung, liver, colon and bone marrow. […] Tissues were harvested for PGE2 assay at either 2 hour (2 h) or 3 hour (3 h) time points following drug injection.

T1 sequence (P15428 whole entry): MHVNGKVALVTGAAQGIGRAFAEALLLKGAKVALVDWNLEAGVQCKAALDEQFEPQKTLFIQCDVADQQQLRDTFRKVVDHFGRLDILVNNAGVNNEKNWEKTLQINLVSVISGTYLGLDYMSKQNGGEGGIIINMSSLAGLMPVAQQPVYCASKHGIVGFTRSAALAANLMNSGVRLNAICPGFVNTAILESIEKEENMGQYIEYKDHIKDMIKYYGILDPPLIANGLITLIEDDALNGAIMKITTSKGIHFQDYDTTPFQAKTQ

Compound: O=C(c1ccc2nc(-c3ccccc3)c(-c3ccccc3)nc2c1)N1CCCCC1 [SW145753]
15-PGDH mRNA levels [1]: do not in general alter 15-PGDH mRNA levels | luciferase activity of 15-PGDH luciferase fusion cells [2]: increase luciferase activity | 15-PGDH activity in cells as reflected in PGE2 levels in medium ([3]; IL1-beta 23 hours, compound added for the last 5 hours): clear inhibition of 15-PGDH activity in the cells

half-life [4]: 1.33 h
Compound: CCCC[S+]([O-])c1sc2nc(-c3cccs3)ccc2c1N (centres unmarked) [SW206980]
Toxicity [5]: >7.5 µM | effect on CellTitre-Glo levels [6]: No effect

Compound: CCCC[S+]([O-])c1sc2nc(-c3nccs3)cc(-c3nccs3)c2c1N (centres unmarked) [SW209124, 2-(butylsulfinyl)-4,6-di(thiazol-2-yl)thieno[2,3-b]pyridin-3-amine]
PGE2 induction compared with SW033291 [3]: increased activity relative to SW033291

Compound: CCCC[S+]([O-])c1sc2nc(-c3nccs3)ccc2c1N (centres unmarked) [SW206992]
melting temperature ([7]; 10 μM protein, 20 uM compound, 100 μM NAD(+), control 49): 59 degrees | Toxicity [5]: >7.5 µM | Time to inhibition (10 nM) ([8]; time needed to inhibit generation of NADH by 15-PGDH after drug is added): ~2 min | exposure needed for maximal reporter induction ([2]; 24 hours, three cell line backgrounds): ≥ 1000 nM | Concentration for Full Cell Line Reporter Induction ([2]; maximal induction of 15-PGDH-luciferase reporter): >1 µM | effect on CellTitre-Glo levels [6]: No effect

Compound: CCCC[S@](C)(O)c1sc2nc(-c3cccs3)cc(-c3ccccc3)c2c1N [SW033291 isomer B]
melting temperature ([7]; Differential Scanning Fluorimetry, shifted from 50.5° C.): 68 °C | IC50 lower than parent racemic mixture [8]: 40% | concentration at which some residual activity is seen ([2]; V9M, printed 'isomer B', context suggests isomer A): 3.2 µM | concentration giving full activity in reporter ([2]; Vaco-9M (V9M)): 0.1 µM

Compound: CCCC[S+]([O-])c1sc2nc(-c3nccs3)cc(-c3nccn3C)c2c1N (centres unmarked) [SW209125, 2-(butylsulfinyl)-4-(1-methyl-1H-imidazol-2-yl)-6-(thiazol-2-yl)thieno[2,3-b]pyridin-3-amine]
PGE2 induction compared with SW033291 [3]: increased activity relative to SW033291

Compound: CCCCC[C@H](O)/C=C/[C@H]1[C@H](O)CC(=O)[C@@H]1C/C=C\CCCC(=O)O [PGE2]
increase in number of bone marrow derived colonies [9]: lesser increase

direct binding to 15-PGDH by melting temperature shift ([7]; 10 μM and 100 μM cofactor (NAD, NADH)): cannot be demonstrated to bind 15-PGDH
Compound: COc1ccc(OC)c(N(CC(=O)Nc2cccnc2)S(=O)(=O)c2ccccc2)c1 [SW054384]
15-PGDH mRNA levels [1]: do not in general alter 15-PGDH mRNA levels | luciferase activity of 15-PGDH luciferase fusion cells [2]: increase luciferase activity | PGE2 level in medium ([3]; compound added 24 hours before IL1-beta, maintained next 26 hours): lower level of PGE2 produced

Compound: CCCC[S+]([O-])c1sc2nc(-c3nccs3)cc(-c3cnc(C)n3C)c2c1N (centres unmarked) [formula (XIII)]
chemical stability with liver extracts [10]: chemically stable | chemical stability in aqueous solutions [11]: chemically stable | immediate toxicity [12]: no immediate toxicity | homing of hematopoietic stem cells following bone marrow transplantation ([13]; 10 mg/kg body weight): increases homing | concentration inhibiting recombinant 15-PGDH ([8]; enzyme concentration approximately 6 nM): 3 nM | solubility [14]: 1000 µg/mL | PGE2 levels in colon, lung, liver and bone marrow ([15]; IP dose of 10 mg/kg body weight): elevates PGE2 levels

Compound: CCCCC(C)(C)[C@H](O)/C=C/[C@H]1[C@H](O)CC(=O)[C@@H]1C/C=C\CCCC(=O)O [dmPGE2, 16,16-dimethyl PGE2]
increase in number of bone marrow derived colonies [9]: slightly greater increase

Compound: COc1ccc2c(c1)c(CC(=O)O)c(C)n2C(=O)c1ccc(Cl)cc1 [indomethacin, reference compound]
effect of SW033291 on homing in presence of COX inhibitor ([13]; SW033291 10 mg/kg IP plus Indomethacin): near completely blocked

Compound: (+) SW209415
time of peak PGE2 ([15]; IP 0.5, 1.5 or 5 mg/kg): 3 h | induction of PGE2 in lung, liver, colon and bone marrow ([15]; IP 0.5, 1.5 or 5 mg/kg, 2 h and 3 h): induction of PGE2 in all 4 tissues tested

IC50 ([8]; read-out: Enzyme Inhibitor IC50 (nM) at 5 nM 15-PGDH, 5 nM recombinant human 15-PGDH): 4910 nM
Compound: CC(=O)OCCCCS(=O)(=O)c1sc2nc(-c3cccs3)cc(-c3ccccc3)c2c1N [SW209128, 4-((3-amino-4-phenyl-6-(thiophen-2-yl)thieno[2,3-b]pyridin-2-yl)sulfonyl)butyl acetate]
